The melting point is the temperature, or range, at which the solid turns liquid.

Data set [1] has as its system blood serum HDL cholesterol. Put plainly: determination of HDL cholesterol in serum of cholesterol/cholic acid-fed rats. Format: in vivo, Male Sprague-Dawley rats. The conditions noted are these: Dose 100 mg/kg/day mixed in diet, 8 days; rats fed chow with 0.25% cholic acid and 1.0% cholesterol; serum HDL cholesterol by FPLC. The method, then: The ability of the compounds of this invention to increase blood serum HDL levels was established by the following standard experimental procedure for determination of HDL cholesterol:
Male Sprague-Dawley rats weighing 200-225 g were housed two per cage and fed Purina Rodent Chow Special Mix 5001-S supplemented with 0.25% cholic acid and 1.0% cholesterol and water ad libitum for 8 days. Each test substance was administered to a group of six rats fed the same diet with the test diet mixed in as 0.005-0.1% of the total diet. Body weight and food consumption were recorded prior to diet administration and at termination. Typical doses of the test substances were 5-100 mg/kg/day.
At termination, blood was collected from anesthetized rats and the serum was separated by centrifugation. Total serum cholesterol was assayed using the Sigma Diagnostics enzymatic kit for the determination of cholesterol, Procedure No. 352, modified for use with ninety-six well microtiter plates. After reconstitution with water the reagent contains 300 U/I cholesterol oxidase, 100 U/I cholesterol esterase, 1000 U/I horse radish peroxidase, 0.3 mmoles/l 4-aminoantipyrine and 30.0 mmoles/l p-hydroxybenzenesulfonate in a pH 6.5 buffer. In the reaction cholesterol was oxidized to produce hydrogen peroxide which was used to form a quinoneimine dye. The concentration of dye formed was measured spectrophotometrically by absorbency at 490 nm after incubation at 25° C. for 30 minutes. The concentration of cholesterol was determined for each serum sample relative to a commercial standard from Sigma.
HDL cholesterol concentrations in serum were determined by separation of lipoprotein classes by fast protein liquid chromatography (FPLC) by a modification of the method of Kieft et al., J. Lipid Res., 32 (1991) 859-866. 25 ul of serum was injected onto Superose 12 and Superose 6 (Pharmacia), in series, with a column buffer of 0.05 M Tris (2-amino-2-hydroxymethyl-1,3-propanediol) and 0.15 M sodium chloride at a flow rate of 0.5 ml/min. The eluted sample was mixed on line with Boehringer-Mannheim cholesterol reagent pumped at […]. The combined eluents were mixed and incubated on line through a knitted coil (Applied Biosciences) maintained at a temperature of 45 C. The eluent was monitored by measuring absorbence at 490 nm and gave a continuous absorbence signal proportional to the cholesterol concentration. The relative concentration of each lipoprotein class was calculated as the percent of total absorbence. HDL cholesterol concentration, in serum, was calculated as the percent of total cholesterol as determined by FPLC multiplied by the total serum cholesterol concentration.

On to `CC1(C)CN2C(=O)c3ccccc3C(O)(c3ccccc3)C2=N1` (stereo not drawn) [Example 1, 10-Hydroxy-2,2-dimethyl-10-phenyl-2,10-dihydroimidazo[1,2-b]isoquinolin-5(3H)-one], for which the melting point fell in the range of 186 to 188 °C. In addition, the “HDL Cholesterol Level Increase (%)” value in data set [1] was found to be 55%. The like results for `O=C1c2ccccc2C(O)(c2ccc(F)cc2)C2=NCCCN12` (stereo not drawn) [Example 2, 11-(4-Fluorophenyl)-11-hydroxy-2,3,4,11-tetrahydro-6H-pyrimido[1,2-b]isoquinolin-6-one] were, in that order, 126 to 128 °C and 22%. The like results for `CC1(C)CN2C(=O)c3ccccc3C(O)(c3ccc(F)cc3)C2=N1` (stereo not drawn) [Example 3, 10-(4-Fluorophenyl)-10-hydroxy-2,2-dimethyl-2,10-dihydroimidazo[1,2-b]isoquinolin-5(3H)-one] were, in that order, 168 to 170 °C and 90%. On to `O=C1c2ccccc2C(O)(c2ccc(F)cc2)C2=NC3CCCCC3N12` (stereo not drawn) [Example 4, 6-(4-Fluorophenyl)-6-hydroxy-1,3,4,4a,6,12a-hexahydrobenzimidazo[1,2-b]isoquinolin-11(2H)-one], for which the melting point fell in the range of 203 to 205 °C. Also, the “HDL Cholesterol Level Increase (%)” value in data set [1] was determined as 21%. The like results for `C[C@@H]1CN2C(=O)c3ccccc3[C@@](O)(c3ccc(F)cc3)C2=N1` [Example 5, (2R, 10S)-10-(4-Fluorophenyl)-10-hydroxy-2-methyl-2,10-dihydroimidazo[1,2-b]isoquinolin-5(3H)-one] were, in that order, 229 to 232 °C and 105%. `C[C@H]1CN2C(=O)c3ccccc3[C@@](O)(c3ccc(F)cc3)C2=N1` [Example 6, (2S,10S)-10-(4-Fluorophenyl)-10-hydroxy-2-methyl-2,10-dihydrolmidazo[1,2-b]isoquinolin-5(3H)-one]: the “HDL Cholesterol Level Increase (%)” value in data set [1] was found to be 38%. With `CC1(C)CN2C(=O)c3ncccc3C(O)(c3ccc(Cl)cc3)C2=N1` (stereo not drawn) [Example 7, 10-(4-Chlorophenyl)-10-hydroxy-2,2-dimethyl-2,10-dihydroimidazo[2,1-g][1,7]naphthyridin-5(3H)-one], the melting point lay within 257 to 260 °C. The “HDL Cholesterol Level Increase (%)” value in data set [1] was found to be 49%. In turn, `O=C1c2ccccc2C(O)(c2ccc(Cl)cc2)C2=NCCCN12` (stereo not drawn) [Example 8, 11-(4-Chlorophenyl)-11-hydroxy-2,3,4,11-tetrahydro-6H-pyrimido[1,2-b]isoquinolin-6-one] registered a melting point of 128 to 130 °C. With `CC1(C)CN2C(=O)c3ccccc3C(O)(c3ccc(Cl)cc3)C2=N1` (stereo not drawn) [Example 10, 10-(4-Chlorophenyl)-10-hydroxy-2,2-dimethyl-2,10-dihydroimidazo[1,2-b]isoquinolin-5(3H)-one], the melting point fell in the range of 181 to 183 °C. Consider `O=C1c2ccccc2C(O)(c2ccc(Cl)cc2)C2=NCCN12` (stereo not drawn) [Example 11, 10-(4-Chlorophenyl)-10-hydroxy-2,10-dihydroimidazo[1,2-b]isoquinolin-5(3H)-one], for which the melting point was 235 to 237 °C. `O=C1c2ccccc2C(O)(c2ccccc2)C2=NCCN12` (stereo not drawn) [Example 12, 10-Hydroxy-10-phenyl-2,10-dihydroimidazo[1,2-b]isoquinolin-5(3H)-one]: the melting point fell in the range of 263 to 265 °C.

As to `O=C1c2ccccc2C(O)(c2ccc(Br)cc2)C2=NCCN12` (stereo not drawn) [Example 13, 10-(4-Bromophenyl)-10-hydroxy-2,10-dihydroimidazo[1,2-b]isoquinolin-5(3H)-one], the melting point was in the range of 212 to 215 °C.

For the origin of these results see patent publication US6448255B1, “Imidazo-isoquinolin-5-one derivatives, pyrimido-isoquinolin-6-one derivatives and imidazo-naphthyridin-5-one derivatives” (Wyeth, priority 2000, dated 2002).
